What was measured:
Assay in all cases: biochemical
[1] = biological target: T1, 371 kinases (kinase named in each endpoint) (Homo sapiens, UniProt P11802)
T1 construct: purchased Reaction Biology

[2] = biological target: T2, 371 kinases (kinase named in each endpoint) (Homo sapiens, UniProt Q00536); conditions: CDK16/CYCLIN Y (PCTAIRE)
T2 construct: purchased Reaction Biology

[3] = biological target: T3, 371 kinases (kinase named in each endpoint) (Homo sapiens, UniProt Q9BUB5); conditions: MNK1
T3 construct: purchased Reaction Biology

[4] = biological target: T4, 371 kinases (kinase named in each endpoint) (Homo sapiens, UniProt Q15569); conditions: TESK1
T4 construct: purchased Reaction Biology

[5] = biological target: T5, 371 kinases (kinase named in each endpoint) (Homo sapiens, UniProt O00444); conditions: PLK4/SAK
T5 construct: purchased Reaction Biology

[6] = biological target: T6, 371 kinases (kinase named in each endpoint) (Homo sapiens, UniProt P45985); conditions: MKK4
T6 construct: purchased Reaction Biology

[7] = biological target: T7, 371 kinases (kinase named in each endpoint) (Homo sapiens, UniProt O96017); conditions: CHK2
T7 construct: purchased Reaction Biology

[8] = biological target: T8, 371 kinases (kinase named in each endpoint) (Homo sapiens, UniProt P53779); conditions: JNK3
T8 construct: purchased Reaction Biology

[9] = biological target: T9, 371 kinases (kinase named in each endpoint) (Homo sapiens, UniProt Q9UBS0); conditions: P70S6KB/RPS6KB2
T9 construct: purchased Reaction Biology

[10] = biological target: T10, 371 kinases (kinase named in each endpoint) (Homo sapiens, UniProt Q13233); conditions: MEKK1
T10 construct: purchased Reaction Biology

[11] = biological target: T11, 371 kinases (kinase named in each endpoint) (Homo sapiens, UniProt Q04759); conditions: PKCTHETA
T11 construct: purchased Reaction Biology

[12] = biological target: T12, 371 kinases (kinase named in each endpoint) (Homo sapiens, UniProt P53778); conditions: P38G
T12 construct: purchased Reaction Biology

[13] = biological target: T13, 371 kinases (kinase named in each endpoint) (Homo sapiens, UniProt O94806); conditions: PKCNU/PRKD3
T13 construct: purchased Reaction Biology

[14] = biological target: T14, 371 kinases (kinase named in each endpoint) (Homo sapiens, UniProt Q96SB4); conditions: SRPK1
T14 construct: purchased Reaction Biology

[15] = biological target: T15, 371 kinases (kinase named in each endpoint) (Homo sapiens, UniProt P23458); conditions: JAK1
T15 construct: purchased Reaction Biology

[16] = biological target: T16, 371 kinases (kinase named in each endpoint) (Homo sapiens, UniProt P34947); conditions: GRK5
T16 construct: purchased Reaction Biology

[17] = biological target: T17, 371 kinases (kinase named in each endpoint) (Homo sapiens, UniProt Q14289); conditions: PYK2
T17 construct: purchased Reaction Biology

[18] = biological target: T18, 371 kinases (kinase named in each endpoint) (Homo sapiens, UniProt P50613); conditions: CDK7/CYCLIN H
T18 construct: purchased Reaction Biology

[19] = biological target: T19, 371 kinases (kinase named in each endpoint) (Homo sapiens, UniProt P05129); conditions: PKCG
T19 construct: purchased Reaction Biology

[20] = biological target: T20, 371 kinases (kinase named in each endpoint) (Homo sapiens, UniProt O43293); conditions: ZIPK/DAPK3
T20 construct: purchased Reaction Biology

[21] = biological target: T21, 371 kinases (kinase named in each endpoint) (Homo sapiens, UniProt O14920); conditions: IKKb/IKBKB
T21 construct: purchased Reaction Biology

[22] = biological target: T22, 371 kinases (kinase named in each endpoint) (Homo sapiens, UniProt Q9HBH9); conditions: MNK2
T22 construct: purchased Reaction Biology

[23] = biological target: T23, 371 kinases (kinase named in each endpoint) (Homo sapiens, UniProt Q86Z02); conditions: HIPK1
T23 construct: purchased Reaction Biology

[24] = biological target: T24, 371 kinases (kinase named in each endpoint) (Homo sapiens, UniProt Q86YV6); conditions: MYLK4
T24 construct: purchased Reaction Biology

[25] = biological target: T25, 371 kinases (kinase named in each endpoint) (Homo sapiens, UniProt P11309); conditions: PIM1
T25 construct: purchased Reaction Biology

[26] = biological target: T26, 371 kinases (kinase named in each endpoint) (Homo sapiens, UniProt Q13554); conditions: CAMK2B
T26 construct: purchased Reaction Biology

[27] = biological target: T27, 371 kinases (kinase named in each endpoint) (Homo sapiens, UniProt O75460); conditions: ERN1/IRE1
T27 construct: purchased Reaction Biology

[28] = biological target: T28, 371 kinases (kinase named in each endpoint) (Homo sapiens, UniProt P04629); conditions: TRKA
T28 construct: purchased Reaction Biology

[29] = biological target: T29, 371 kinases (kinase named in each endpoint) (Homo sapiens, UniProt P17948); conditions: FLT1/VEGFR1
T29 construct: purchased Reaction Biology

[30] = biological target: T30, 371 kinases (kinase named in each endpoint) (Homo sapiens, UniProt P37173); conditions: TGFBR2
T30 construct: purchased Reaction Biology

[31] = biological target: T31, 371 kinases (kinase named in each endpoint) (Homo sapiens, UniProt Q9NRM7); conditions: LATS2
T31 construct: purchased Reaction Biology

[32] = biological target: T32, 371 kinases (kinase named in each endpoint) (Homo sapiens, UniProt P10398); conditions: ARAF
T32 construct: purchased Reaction Biology

[33] = biological target: T33, 371 kinases (kinase named in each endpoint) (Homo sapiens, UniProt P22612); conditions: PKACG
T33 construct: purchased Reaction Biology

[34] = biological target: T34, 371 kinases (kinase named in each endpoint) (Homo sapiens, UniProt O95819); conditions: HGK/MAP4K4
T34 construct: purchased Reaction Biology

[35] = biological target: T35, 371 kinases (kinase named in each endpoint) (Homo sapiens, UniProt Q07912); conditions: ACK1
T35 construct: purchased Reaction Biology

[36] = biological target: T36, 371 kinases (kinase named in each endpoint) (Homo sapiens, UniProt P78368); conditions: CK1G2
T36 construct: purchased Reaction Biology

T1 sequence (P11802 whole entry): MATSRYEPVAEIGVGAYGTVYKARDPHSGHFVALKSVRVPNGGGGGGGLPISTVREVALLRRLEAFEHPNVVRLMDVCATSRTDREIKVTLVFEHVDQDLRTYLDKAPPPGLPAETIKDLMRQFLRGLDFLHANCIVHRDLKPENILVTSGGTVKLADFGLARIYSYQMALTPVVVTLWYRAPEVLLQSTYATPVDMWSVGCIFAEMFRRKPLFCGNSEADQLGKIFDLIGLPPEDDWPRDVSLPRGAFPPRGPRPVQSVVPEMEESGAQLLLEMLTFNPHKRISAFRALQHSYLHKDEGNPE
T35 sequence (Q07912 whole entry): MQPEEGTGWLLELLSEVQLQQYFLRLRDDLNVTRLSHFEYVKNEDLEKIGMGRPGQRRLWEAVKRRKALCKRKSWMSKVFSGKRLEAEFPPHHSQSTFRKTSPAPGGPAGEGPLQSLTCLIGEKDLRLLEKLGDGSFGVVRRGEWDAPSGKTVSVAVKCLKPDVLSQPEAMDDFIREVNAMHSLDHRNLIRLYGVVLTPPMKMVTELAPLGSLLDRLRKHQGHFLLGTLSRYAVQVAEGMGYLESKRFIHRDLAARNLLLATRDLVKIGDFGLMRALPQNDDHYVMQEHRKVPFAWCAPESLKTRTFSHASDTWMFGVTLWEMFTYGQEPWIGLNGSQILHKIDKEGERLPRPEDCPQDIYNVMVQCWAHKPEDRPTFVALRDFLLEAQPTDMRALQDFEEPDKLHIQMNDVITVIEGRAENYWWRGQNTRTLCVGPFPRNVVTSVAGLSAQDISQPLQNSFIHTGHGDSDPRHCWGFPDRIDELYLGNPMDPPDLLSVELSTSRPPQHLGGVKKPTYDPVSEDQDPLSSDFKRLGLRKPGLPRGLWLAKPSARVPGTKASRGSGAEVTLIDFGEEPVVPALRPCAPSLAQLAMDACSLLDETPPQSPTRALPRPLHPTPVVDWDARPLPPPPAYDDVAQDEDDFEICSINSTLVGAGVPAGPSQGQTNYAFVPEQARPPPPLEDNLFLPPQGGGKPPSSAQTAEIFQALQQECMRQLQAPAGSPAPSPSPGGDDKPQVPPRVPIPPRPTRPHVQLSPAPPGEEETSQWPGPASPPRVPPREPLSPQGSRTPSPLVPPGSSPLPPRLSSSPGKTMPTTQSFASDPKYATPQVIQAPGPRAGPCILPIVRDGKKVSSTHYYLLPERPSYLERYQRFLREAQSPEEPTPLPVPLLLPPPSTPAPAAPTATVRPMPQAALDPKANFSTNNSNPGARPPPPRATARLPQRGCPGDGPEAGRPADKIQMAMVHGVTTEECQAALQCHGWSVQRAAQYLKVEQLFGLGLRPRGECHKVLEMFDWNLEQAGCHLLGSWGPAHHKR
T28 sequence (P04629 33-796): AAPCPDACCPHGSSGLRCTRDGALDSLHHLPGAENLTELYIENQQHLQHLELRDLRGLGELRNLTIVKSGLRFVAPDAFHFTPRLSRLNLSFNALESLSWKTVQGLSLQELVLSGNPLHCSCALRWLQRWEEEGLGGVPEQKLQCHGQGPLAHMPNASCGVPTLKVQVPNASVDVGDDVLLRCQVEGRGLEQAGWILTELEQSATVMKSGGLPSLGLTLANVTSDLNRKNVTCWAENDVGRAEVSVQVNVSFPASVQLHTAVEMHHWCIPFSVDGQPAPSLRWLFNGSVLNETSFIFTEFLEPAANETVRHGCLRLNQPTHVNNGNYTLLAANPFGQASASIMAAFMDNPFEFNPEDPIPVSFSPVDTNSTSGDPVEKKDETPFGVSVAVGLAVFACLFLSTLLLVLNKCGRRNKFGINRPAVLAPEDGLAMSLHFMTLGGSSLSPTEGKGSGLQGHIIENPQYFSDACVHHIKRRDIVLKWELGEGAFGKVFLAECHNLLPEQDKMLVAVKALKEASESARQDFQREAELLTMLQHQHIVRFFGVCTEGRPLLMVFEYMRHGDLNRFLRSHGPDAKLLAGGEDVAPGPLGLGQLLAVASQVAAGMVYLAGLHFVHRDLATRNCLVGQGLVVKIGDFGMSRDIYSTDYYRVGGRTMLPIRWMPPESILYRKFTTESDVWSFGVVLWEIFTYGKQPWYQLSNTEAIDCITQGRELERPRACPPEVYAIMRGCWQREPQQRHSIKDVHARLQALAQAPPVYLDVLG
T31 sequence (Q9NRM7 whole entry): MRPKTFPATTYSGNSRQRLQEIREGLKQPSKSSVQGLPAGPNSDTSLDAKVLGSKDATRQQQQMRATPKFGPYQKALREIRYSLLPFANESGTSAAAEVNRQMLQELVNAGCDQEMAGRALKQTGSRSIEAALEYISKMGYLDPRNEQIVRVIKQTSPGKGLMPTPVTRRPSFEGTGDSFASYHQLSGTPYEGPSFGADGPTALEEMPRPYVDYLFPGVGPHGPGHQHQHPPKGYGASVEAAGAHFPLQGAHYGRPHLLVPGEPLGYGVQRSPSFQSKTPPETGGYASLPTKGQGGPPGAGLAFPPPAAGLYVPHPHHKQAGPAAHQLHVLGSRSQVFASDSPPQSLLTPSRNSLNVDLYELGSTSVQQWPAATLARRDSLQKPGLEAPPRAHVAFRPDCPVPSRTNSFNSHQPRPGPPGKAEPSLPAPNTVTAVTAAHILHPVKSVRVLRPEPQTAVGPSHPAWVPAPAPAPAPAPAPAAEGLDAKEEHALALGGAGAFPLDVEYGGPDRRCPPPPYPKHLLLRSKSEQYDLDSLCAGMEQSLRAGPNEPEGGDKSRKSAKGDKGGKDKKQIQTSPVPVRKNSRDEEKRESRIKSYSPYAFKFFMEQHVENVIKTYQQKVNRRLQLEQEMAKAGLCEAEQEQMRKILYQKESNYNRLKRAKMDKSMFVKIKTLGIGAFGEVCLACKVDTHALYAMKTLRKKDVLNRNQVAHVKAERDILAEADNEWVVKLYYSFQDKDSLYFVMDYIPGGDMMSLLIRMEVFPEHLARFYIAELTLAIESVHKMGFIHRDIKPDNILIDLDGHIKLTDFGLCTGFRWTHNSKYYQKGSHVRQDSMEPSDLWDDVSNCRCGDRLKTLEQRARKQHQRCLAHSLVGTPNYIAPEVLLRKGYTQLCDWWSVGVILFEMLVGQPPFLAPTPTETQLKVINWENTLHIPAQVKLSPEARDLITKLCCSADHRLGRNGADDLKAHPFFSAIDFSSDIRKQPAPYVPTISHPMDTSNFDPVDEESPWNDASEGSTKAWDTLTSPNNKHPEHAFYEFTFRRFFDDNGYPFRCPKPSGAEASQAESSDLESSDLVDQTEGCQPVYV
T33 sequence (P22612 whole entry): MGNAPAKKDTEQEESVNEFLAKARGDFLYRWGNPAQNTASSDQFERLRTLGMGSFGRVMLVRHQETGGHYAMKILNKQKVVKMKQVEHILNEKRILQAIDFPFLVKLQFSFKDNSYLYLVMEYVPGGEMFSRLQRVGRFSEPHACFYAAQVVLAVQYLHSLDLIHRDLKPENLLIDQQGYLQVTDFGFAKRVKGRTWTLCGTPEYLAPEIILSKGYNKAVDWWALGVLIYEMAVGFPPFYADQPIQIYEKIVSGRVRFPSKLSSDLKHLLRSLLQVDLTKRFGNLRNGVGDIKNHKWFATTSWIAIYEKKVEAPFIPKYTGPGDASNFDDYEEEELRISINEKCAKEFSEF
T27 sequence (O75460 19-977): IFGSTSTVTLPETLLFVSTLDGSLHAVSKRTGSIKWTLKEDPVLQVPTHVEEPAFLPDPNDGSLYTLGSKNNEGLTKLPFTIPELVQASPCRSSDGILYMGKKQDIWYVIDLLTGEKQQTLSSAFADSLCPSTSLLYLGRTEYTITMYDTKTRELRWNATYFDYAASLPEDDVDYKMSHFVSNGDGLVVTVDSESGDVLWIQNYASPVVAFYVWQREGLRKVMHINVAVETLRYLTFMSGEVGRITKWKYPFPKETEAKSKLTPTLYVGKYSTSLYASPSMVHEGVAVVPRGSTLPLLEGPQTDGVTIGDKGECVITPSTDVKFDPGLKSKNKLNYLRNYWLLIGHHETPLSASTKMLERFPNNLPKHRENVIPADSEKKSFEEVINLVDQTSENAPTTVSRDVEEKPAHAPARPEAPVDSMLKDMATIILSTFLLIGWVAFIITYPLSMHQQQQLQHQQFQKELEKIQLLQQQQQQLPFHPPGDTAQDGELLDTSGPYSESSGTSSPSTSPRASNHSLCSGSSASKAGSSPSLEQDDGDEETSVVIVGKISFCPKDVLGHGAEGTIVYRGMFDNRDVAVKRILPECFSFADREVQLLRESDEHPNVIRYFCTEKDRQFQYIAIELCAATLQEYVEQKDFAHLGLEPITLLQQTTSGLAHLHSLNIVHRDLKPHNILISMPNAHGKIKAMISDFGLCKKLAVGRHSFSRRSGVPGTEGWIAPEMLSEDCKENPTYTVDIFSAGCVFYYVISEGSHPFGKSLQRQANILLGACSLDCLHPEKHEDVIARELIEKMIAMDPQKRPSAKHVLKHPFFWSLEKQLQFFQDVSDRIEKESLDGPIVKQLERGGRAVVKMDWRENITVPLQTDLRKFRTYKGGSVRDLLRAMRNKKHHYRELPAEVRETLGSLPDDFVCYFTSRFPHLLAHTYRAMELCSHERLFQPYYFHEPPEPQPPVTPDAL
T9 sequence (Q9UBS0 whole entry): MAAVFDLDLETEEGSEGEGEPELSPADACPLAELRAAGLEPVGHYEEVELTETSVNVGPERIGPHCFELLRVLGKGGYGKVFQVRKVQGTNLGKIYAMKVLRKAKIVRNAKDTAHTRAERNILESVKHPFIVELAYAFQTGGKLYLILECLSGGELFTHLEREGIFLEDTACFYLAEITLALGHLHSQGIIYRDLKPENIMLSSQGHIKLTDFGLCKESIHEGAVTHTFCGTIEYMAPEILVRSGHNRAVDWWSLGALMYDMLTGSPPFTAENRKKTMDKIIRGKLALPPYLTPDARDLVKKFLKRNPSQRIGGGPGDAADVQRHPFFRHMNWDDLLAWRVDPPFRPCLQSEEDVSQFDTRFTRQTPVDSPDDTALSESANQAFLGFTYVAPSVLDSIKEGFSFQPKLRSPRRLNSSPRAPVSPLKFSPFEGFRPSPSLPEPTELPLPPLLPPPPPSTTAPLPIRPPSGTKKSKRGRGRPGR

O=C(O)c1cc(C(F)(F)F)ccc1NCCc1c[nH]c2cc(Br)ccc12 [Compound 5, 2-((2-(6-Bromo-1H-indol-3-yl)ethyl)amino)−5-(trifluoromethyl)benzoic Acid]
activity at 10 µM ([1]; CDK4/CYCLIN D1): 80.1 ± 2.6%
activity at 10 µM ([1]; CDK4/CYCLIN D2): 29.1 ± 0.1%
activity at 10 µM ([1]; CDK4/CYCLIN D3): 82.9 ± 0.6%
activity at 10 µM [2]: 76.9 ± 0.5%
activity at 10 µM [3]: 79 ± 0.9%
activity at 10 µM [4]: 82.4 ± 1.3%
activity at 10 µM [5]: 91.2 ± 1.2%
activity at 10 µM [6]: 115 ± 4.5%
activity at 10 µM [7]: 90.2 ± 1.5%
activity at 10 µM [8]: 90.9 ± 0.3%
activity at 10 µM [9]: 96.1 ± 1.6%
activity at 10 µM [10]: 110 ± 0.1%
activity at 10 µM [11]: 95.5 ± 0.4%
activity at 10 µM [12]: 107 ± 1.5%
activity at 10 µM [13]: 139 ± 7.1%
activity at 10 µM [14]: 91.3 ± 0.5%
activity at 10 µM [15]: 67.7 ± 0.8%
activity at 10 µM [16]: 101 ± 1.1%
activity at 10 µM [17]: 75.6 ± 1.9%
activity at 10 µM [18]: 104 ± 3.6%
activity at 10 µM [19]: 81.9 ± 1.6%
activity at 10 µM [20]: 74.5 ± 3.3%
activity at 10 µM [21]: 82.1 ± 0.2%
activity at 10 µM [22]: 93.3 ± 1.9%
activity at 10 µM [23]: 64.9 ± 0.2%
activity at 10 µM [24]: 78.7 ± 0.2%
activity at 10 µM [25]: 40.6 ± 3.2%
activity at 10 µM [26]: 62.2 ± 0.8%
activity at 10 µM [27]: 101 ± 0.6%
activity at 10 µM [28]: 65.1 ± 1.6%
activity at 10 µM [29]: 85 ± 0.7%
activity at 10 µM [30]: 79.2 ± 1.5%
activity at 10 µM [31]: 79.1 ± 1.6%
activity at 10 µM [32]: 91.1 ± 0.8%
activity at 10 µM [33]: 76.2 ± 2.6%
activity at 10 µM [34]: 50.4 ± 0.4%
activity at 10 µM [35]: 92 ± 0.4%
activity at 10 µM [36]: 102 ± 1.6%

Source: PMC10239507, “Development of allosteric and selective CDK2 inhibitors for contraception with negative cooperativity to cyclin binding” (Nature Communications, 2023)
